Laboratory results: patent US12077503B2, “Substituted cyclic amides and their use as herbicides” (FMC CORPORATION, priority 2015, dated 2024)

Experiments:
Experiment in all cases: Test C preemergence
Type in all cases: in vivo
Conditions in all cases: scale 0 to 100, 0 no effect, 100 complete control
[1] = test system: barnyardgrass (Echinochloa crus-galli)
Outline: (§1)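 Preemergence: sow in loam-sand soil and treat. Postemergence: grow in peat-moss/vermiculite medium to 2–18 cm (1–4 leaves) and spray. Compound in non-phytotoxic solvent with surfactant; keep in greenhouse 13–15 d; score visually against controls, 0 (none) to 100 (full control).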

corn (Zea mays) = test system: corn (Zea mays)
Outline: as §1

[2] = test system: crabgrass, large (large crabgrass, Digitaria sanguinalis)
Outline: as §1

[3] = test system: foxtail, giant (giant foxtail, Setaria faberii)
Outline: as §1

[4] = test system: johnsongrass (Sorghum halepense)
Outline: as §1

[5] = test system: lambsquarters (Chenopodium album)
Outline: as §1

[6] = test system: morningglory (Ipomoea coccinea)
Outline: as §1

[7] = test system: nutsedge, yellow (yellow nutsedge, Cyperus esculentus)
Outline: as §1

[8] = test system: oilseed rape (Brassica napus)
Outline: as §1

[9] = test system: pigweed (Amaranthus retroflexus)
Outline: as §1

[10] = test system: ragweed (common ragweed, Ambrosia elatior)
Outline: as §1

[11] = test system: ryegrass, Italian (Italian ryegrass, Lolium multiflorum)
Outline: as §1

soybean (Glycine max) = test system: soybean (Glycine max)
Outline: as §1

[12] = test system: velvetleaf (Abutilon theophrasti)
Outline: as §1

[13] = test system: waterhemp (common waterhemp, Amaranthus rudis)
Outline: as §1

[14] = test system: wheat (winter wheat, Triticum aestivum)
Outline: as §1

Question: Which results are given for `CN1CC(c2cccc(OC(F)(F)C(F)F)c2)C(C(=O)Nc2ccc(F)cc2F)C1=O` (stereo not shown) [Compound 393]?
Answer: Plant response rating, Barnyardgrass ([1]; 31 g ai/ha): 90; Plant response rating, Barnyardgrass ([1]; 62 g ai/ha): 90; Plant response rating, Barnyardgrass ([1]; 125 g ai/ha): 95; Plant response rating, Barnyardgrass ([1]; 250 g ai/ha): 95; Plant response rating, Corn (corn (Zea mays); 31 g ai/ha): 0; Plant response rating, Corn (corn (Zea mays); 62 g ai/ha): 40; Plant response rating, Corn (corn (Zea mays); 125 g ai/ha): 55; Plant response rating, Corn (corn (Zea mays); 250 g ai/ha): 70; Plant response rating, Crabgrass, Large ([2]; 31 g ai/ha): 95; Plant response rating, Crabgrass, Large ([2]; 62 g ai/ha): 95; Plant response rating, Crabgrass, Large ([2]; 125 g ai/ha): 95; Plant response rating, Crabgrass, Large ([2]; 250 g ai/ha): 98; Plant response rating, Foxtail, Giant ([3]; 31 g ai/ha): 90; Plant response rating, Foxtail, Giant ([3]; 62 g ai/ha): 95; Plant response rating, Foxtail, Giant ([3]; 125 g ai/ha): 95; Plant response rating, Foxtail, Giant ([3]; 250 g ai/ha): 95; Plant response rating, Johnsongrass ([4]; 31 g ai/ha): 70; Plant response rating, Johnsongrass ([4]; 62 g ai/ha): 80; Plant response rating, Johnsongrass ([4]; 125 g ai/ha): 85; Plant response rating, Johnsongrass ([4]; 250 g ai/ha): 85; Plant response rating, Lambsquarters ([5]; 31 g ai/ha): 55; Plant response rating, Lambsquarters ([5]; 62 g ai/ha): 75; Plant response rating, Lambsquarters ([5]; 125 g ai/ha): 75; Plant response rating, Lambsquarters ([5]; 250 g ai/ha): 85; Plant response rating, Morningglory ([6]; 31 g ai/ha): 0; Plant response rating, Morningglory ([6]; 62 g ai/ha): 10; Plant response rating, Morningglory ([6]; 125 g ai/ha): 10; Plant response rating, Morningglory ([6]; 250 g ai/ha): 10; Plant response rating, Nutsedge, Yellow ([7]; 31 g ai/ha): 0; Plant response rating, Nutsedge, Yellow ([7]; 62 g ai/ha): 0; Plant response rating, Nutsedge, Yellow ([7]; 125 g ai/ha): 0; Plant response rating, Nutsedge, Yellow ([7]; 250 g ai/ha): 0; Plant response rating, Oilseed Rape ([8]; 31 g ai/ha): 0; Plant response rating, Oilseed Rape ([8]; 62 g ai/ha): 40; Plant response rating, Oilseed Rape ([8]; 125 g ai/ha): 80; Plant response rating, Oilseed Rape ([8]; 250 g ai/ha): 85; Plant response rating, Pigweed ([9]; 31 g ai/ha): 70; Plant response rating, Pigweed ([9]; 62 g ai/ha): 75; Plant response rating, Pigweed ([9]; 125 g ai/ha): 85; Plant response rating, Pigweed ([9]; 250 g ai/ha): 90; Plant response rating, Ragweed ([10]; 31 g ai/ha): 35; Plant response rating, Ragweed ([10]; 62 g ai/ha): 35; Plant response rating, Ragweed ([10]; 125 g ai/ha): 40; Plant response rating, Ragweed ([10]; 250 g ai/ha): 65; Plant response rating, Ryegrass, Italian ([11]; 62 g ai/ha): 30; Plant response rating, Ryegrass, Italian ([11]; 125 g ai/ha): 30; Plant response rating, Ryegrass, Italian ([11]; 250 g ai/ha): 45; Plant response rating, Soybean (soybean (Glycine max); 62 g ai/ha): 10; Plant response rating, Soybean (soybean (Glycine max); 125 g ai/ha): 15; Plant response rating, Soybean (soybean (Glycine max); 250 g ai/ha): 30; Plant response rating, Velvetleaf ([12]; 62 g ai/ha): 35; Plant response rating, Velvetleaf ([12]; 125 g ai/ha): 50; Plant response rating, Velvetleaf ([12]; 250 g ai/ha): 80; Plant response rating, Waterhemp ([13]; 62 g ai/ha): 80; Plant response rating, Waterhemp ([13]; 125 g ai/ha): 85; Plant response rating, Waterhemp ([13]; 250 g ai/ha): 90; Plant response rating, Wheat ([14]; 62 g ai/ha): 20; Plant response rating, Wheat ([14]; 125 g ai/ha): 35; Plant response rating, Wheat ([14]; 250 g ai/ha): 70

Question: How did the “Plant response rating, Barnyardgrass” value ([1]; 31 g ai/ha) turn out when `CN1CC(c2cccc(C(F)(F)F)c2)C(C)(C(=O)Nc2ccccc2F)C1=O` (stereo not shown) [Compound 428] was run?
Answer: Its value is 90.

Question: And the “Plant response rating, Barnyardgrass” value ([1]; 62 g ai/ha)?
Answer: The value was 95.

Question: What about the “Plant response rating, Barnyardgrass” value ([1]; 125 g ai/ha) of the same compound?
Answer: Its value is 95.

Question: And the “Plant response rating, Barnyardgrass” value ([1]; 250 g ai/ha)?
Answer: Its value is 98.

Question: What about the “Plant response rating, Corn” value (corn (Zea mays); 31 g ai/ha) of the same compound?
Answer: The value was 15.

Question: And the “Plant response rating, Corn” value (corn (Zea mays); 62 g ai/ha)?
Answer: The value was 25.

Question: And the “Plant response rating, Corn” value (corn (Zea mays); 125 g ai/ha)?
Answer: The value was 55.

Question: What about the “Plant response rating, Corn” value (corn (Zea mays); 250 g ai/ha) of the same compound?
Answer: The value was 70.

Question: What about the “Plant response rating, Crabgrass, Large” value ([2]; 31 g ai/ha) of the same compound?
Answer: The value was 90.

Question: What about the “Plant response rating, Crabgrass, Large” value ([2]; 62 g ai/ha) of the same compound?
Answer: Its value is 95.

Question: And the “Plant response rating, Crabgrass, Large” value ([2]; 125 g ai/ha)?
Answer: Its value is 98.

Question: And the “Plant response rating, Crabgrass, Large” value ([2]; 250 g ai/ha)?
Answer: The value was 98.

Question: And the “Plant response rating, Foxtail, Giant” value ([3]; 31 g ai/ha)?
Answer: The value was 85.

Question: What about the “Plant response rating, Foxtail, Giant” value ([3]; 62 g ai/ha) of the same compound?
Answer: The value was 90.

Question: And the “Plant response rating, Foxtail, Giant” value ([3]; 125 g ai/ha)?
Answer: The value was 90.

Question: What about the “Plant response rating, Foxtail, Giant” value ([3]; 250 g ai/ha) of the same compound?
Answer: Its value is 95.

Question: And the “Plant response rating, Johnsongrass” value ([4]; 31 g ai/ha)?
Answer: The value was 5.

Question: And the “Plant response rating, Johnsongrass” value ([4]; 62 g ai/ha)?
Answer: The value was 50.

Question: What about the “Plant response rating, Johnsongrass” value ([4]; 125 g ai/ha) of the same compound?
Answer: Its value is 65.

Question: What about the “Plant response rating, Johnsongrass” value ([4]; 250 g ai/ha) of the same compound?
Answer: Its value is 75.

Question: And the “Plant response rating, Lambsquarters” value ([5]; 31 g ai/ha)?
Answer: The value was 0.

Question: And the “Plant response rating, Lambsquarters” value ([5]; 62 g ai/ha)?
Answer: The value was 10.

Question: What about the “Plant response rating, Lambsquarters” value ([5]; 125 g ai/ha) of the same compound?
Answer: The value was 35.

Question: What about the “Plant response rating, Lambsquarters” value ([5]; 250 g ai/ha) of the same compound?
Answer: Its value is 65.

Question: And the “Plant response rating, Morningglory” value ([6]; 31 g ai/ha)?
Answer: The value was 0.

Question: And the “Plant response rating, Morningglory” value ([6]; 62 g ai/ha)?
Answer: Its value is 0.

Question: And the “Plant response rating, Morningglory” value ([6]; 125 g ai/ha)?
Answer: Its value is 0.

Question: What about the “Plant response rating, Morningglory” value ([6]; 250 g ai/ha) of the same compound?
Answer: Its value is 0.

Question: What about the “Plant response rating, Nutsedge, Yellow” value ([7]; 31 g ai/ha) of the same compound?
Answer: Its value is 0.

Question: And the “Plant response rating, Nutsedge, Yellow” value ([7]; 62 g ai/ha)?
Answer: The value was 0.

Question: And the “Plant response rating, Nutsedge, Yellow” value ([7]; 125 g ai/ha)?
Answer: The value was 0.

Question: What about the “Plant response rating, Nutsedge, Yellow” value ([7]; 250 g ai/ha) of the same compound?
Answer: Its value is 30.

Question: And the “Plant response rating, Oilseed Rape” value ([8]; 31 g ai/ha)?
Answer: The value was 0.

Question: What about the “Plant response rating, Oilseed Rape” value ([8]; 62 g ai/ha) of the same compound?
Answer: The value was 0.

Question: What about the “Plant response rating, Oilseed Rape” value ([8]; 125 g ai/ha) of the same compound?
Answer: The value was 0.

Question: And the “Plant response rating, Oilseed Rape” value ([8]; 250 g ai/ha)?
Answer: Its value is 15.

Question: What about the “Plant response rating, Pigweed” value ([9]; 31 g ai/ha) of the same compound?
Answer: Its value is 10.

Question: And the “Plant response rating, Pigweed” value ([9]; 62 g ai/ha)?
Answer: Its value is 0.

Question: What about the “Plant response rating, Pigweed” value ([9]; 125 g ai/ha) of the same compound?
Answer: Its value is 0.

Question: And the “Plant response rating, Pigweed” value ([9]; 250 g ai/ha)?
Answer: Its value is 40.

Question: What about the “Plant response rating, Ragweed” value ([10]; 31 g ai/ha) of the same compound?
Answer: The value was 0.

Question: And the “Plant response rating, Ragweed” value ([10]; 62 g ai/ha)?
Answer: The value was 0.

Question: And the “Plant response rating, Ragweed” value ([10]; 125 g ai/ha)?
Answer: Its value is 0.

Question: What about the “Plant response rating, Ragweed” value ([10]; 250 g ai/ha) of the same compound?
Answer: Its value is 0.

Question: And the “Plant response rating, Ryegrass, Italian” value ([11]; 62 g ai/ha)?
Answer: Its value is 40.

Question: What about the “Plant response rating, Ryegrass, Italian” value ([11]; 125 g ai/ha) of the same compound?
Answer: Its value is 40.

Question: And the “Plant response rating, Ryegrass, Italian” value ([11]; 250 g ai/ha)?
Answer: The value was 45.

Question: What about the “Plant response rating, Soybean” value (soybean (Glycine max); 62 g ai/ha) of the same compound?
Answer: Its value is 0.

Question: And the “Plant response rating, Soybean” value (soybean (Glycine max); 125 g ai/ha)?
Answer: Its value is 0.

Question: What about the “Plant response rating, Soybean” value (soybean (Glycine max); 250 g ai/ha) of the same compound?
Answer: Its value is 15.

Question: And the “Plant response rating, Velvetleaf” value ([12]; 62 g ai/ha)?
Answer: Its value is 0.

Question: What about the “Plant response rating, Velvetleaf” value ([12]; 125 g ai/ha) of the same compound?
Answer: Its value is 0.

Question: And the “Plant response rating, Velvetleaf” value ([12]; 250 g ai/ha)?
Answer: The value was 10.

Question: And the “Plant response rating, Waterhemp” value ([13]; 62 g ai/ha)?
Answer: The value was 0.

Question: And the “Plant response rating, Waterhemp” value ([13]; 125 g ai/ha)?
Answer: The value was 10.

Question: What about the “Plant response rating, Waterhemp” value ([13]; 250 g ai/ha) of the same compound?
Answer: Its value is 35.

Question: And the “Plant response rating, Wheat” value ([14]; 62 g ai/ha)?
Answer: Its value is 15.

Question: What about the “Plant response rating, Wheat” value ([14]; 125 g ai/ha) of the same compound?
Answer: The value was 50.

Question: And the “Plant response rating, Wheat” value ([14]; 250 g ai/ha)?
Answer: The value was 80.
